Measurements as given in patent US20110301137A1 (APEX LABORATORIES PRIVATE LIMITED, priority 2009, published 2011).
Read-outs that look alike come from different tables or passages of the source.

Assay type: physicochemical
Details: for degradation of the API: 3 months; for Initial (%): at time of receipt of the API from the supplier

Structure (SMILES)	degradation of the API	Initial (%) (Sodium Fusidate BP)	Initial (%) (Fusidic Acid BP)
CC(=O)O[C@H]1C[C@@]2(C)[C@@H](C[C@@H](O)[C@H]3[C@@]4(C)CC[C@@H](O)[C@@H](C)[C@@H]4CC[C@@]32C)/C1=C(\CCC=C(C)C)C(=O)O [Sodium Fusidate]	2.45-6%	98.7%	
CC(=O)O[C@H]1C[C@@]2(C)[C@@H](C[C@@H](O)[C@H]3[C@@]4(C)CC[C@@H](O)[C@@H](C)[C@@H]4CC[C@@]32C)/C1=C(\CCC=C(C)C)C(=O)O [Fusidic Acid, Fusidic acid]	7.7-11%		100.6%
